Columns and labels:
[1] = tested on: Human immunodeficiency virus 1; experiment: Reactivation of HIV-1 latency infected in human Th17 cells assessed as increase in HIV production by measuring phosphorylated S175 CDK9 levels at 1 uM incubated for 96 hrs by flow cytometry; type: functional
[2] = tested on: Human immunodeficiency virus 1; experiment: Reactivation of HIV-1 latency infected in human Th17 cells assessed as increase in HIV production by measuring phosphorylated S175 CDK9 levels at 10 nM incubated for 96 hrs by flow cytometry; type: functional
[3] = tested on: Human immunodeficiency virus 1; experiment: Reversal of HIV-1 latency infected in human J-Lat Tat-GFP Clone A7 cells assessed as increase in GFP expressing cells at 200 nM incubated for 72 hrs by flow cytometry analysis relative to control; type: functional
[4] = tested on: Human immunodeficiency virus 1; experiment: Reactivation of HIV-1 latency in human U1 cells assessed as fold increase in HIV transcription by measuring GFP expression at 2 uM incubated for 24 hrs in presence of PEP005 by flow cytometry; type: functional
[5] = tested on: Human immunodeficiency virus 1; experiment: Reversal of HIV-1 latency infected in GFP-fused human J-Lat C11 cells assessed as increase in GFP expression at 10 uM incubated for 72 hrs by flow cytometry; type: functional
[6] = tested on: Human immunodeficiency virus 1; experiment: Reversal of HIV-1 latency infected in GFP-fused human J-Lat 10.6 cells increase in GFP expressing cells by FACS analysis; type: functional, organism-based; details: Human immunodeficiency virus 1, J-Lat 10.6
[7] = tested on: Human immunodeficiency virus 1; experiment: Reactivation of HIV-1 latency in GFP-fused human primary CD4+ve Th cells infected with HIV-1NL4-3 luciferase virus assessed as fold increase in GFP expression incubated for 48 hrs by luciferase luminescence analysis; type: functional
[8] = tested on: Human immunodeficiency virus 1; experiment: Reversal of HIV-1 latency infected in GFP-fused human J-Lat A2 cells assessed as increase in GFP expression at 4 uM incubated for 3 hrs by flow cytometry; type: functional
[9] = tested on: Human immunodeficiency virus 1; experiment: Reversal of HIV-1 latency infected in GFP-fused human J-Lat C11 cells assessed as increase in GFP expression at 4 uM incubated for 3 hrs by flow cytometry; type: functional
[10] = tested on: Human immunodeficiency virus 1; experiment: Reactivation of HIV-1 latency infected in human J-Lat GFP Clone A72 cells assessed as increase in GFP expression at 5 to 10 mM incubated for 18 hrs by flow cytometry; type: functional; details: dose 5-10 mM
[11] = tested on: Human immunodeficiency virus 1; experiment: Reactivation of HIV-1 latency infected in human CD4+ve Th cells assessed as fold increase in GFP expression at 500 nM incubated for 18 hrs by flow cytometry; type: functional
[12] = target: N-lysine methyltransferase SMYD2 (Homo sapiens, UniProt Q9NRG4); experiment: Inhibition of SMYD2 (unknown origin)
[13] = tested on: Human immunodeficiency virus 1; experiment: Reversal of HIV-1 latency infected in GFP-fused human A10.6 cells assessed as fold increase in acetylation of H4 within Nuc-1 at 0.5 uM incubated for 4 hrs by ChIP assay; type: functional, A10.6 cell
[14] = tested on: Human immunodeficiency virus 1; experiment: Reversal of HIV-1 latency infected in GFP-fused human A10.6 cells assessed as increase in GFP expressing cells at 1 uM incubated for 24 hrs by FACS analysis; type: functional, A10.6 cell
[15] = tested on: Human immunodeficiency virus 1; experiment: Reversal of HIV-1 latency infected in GFP-fused human A10.6 cells assessed as fold increase in acetylation of H3 within Nuc-1 at 0.5 uM incubated for 4 hrs by ChIP assay; type: functional, A10.6 cell
[16] = tested on: Human immunodeficiency virus 1; experiment: Reversal of HIV-1 latency infected in GFP-fused human A10.6 cells assessed as increase in GFP expressing cells at 0.25 uM incubated for 24 hrs by FACS analysis; type: functional
[17] = tested on: Human immunodeficiency virus 1; experiment: Reversal of HIV-1 latency infected in GFP-fused human Jurkat latent cells assessed as increase in GFP expressing cells at 4 uM incubated for 48 hrs by flow cytometry analysis; type: functional

Chain of N-lysine methyltransferase SMYD2 (Q9NRG4 whole entry, the tested form may be a part): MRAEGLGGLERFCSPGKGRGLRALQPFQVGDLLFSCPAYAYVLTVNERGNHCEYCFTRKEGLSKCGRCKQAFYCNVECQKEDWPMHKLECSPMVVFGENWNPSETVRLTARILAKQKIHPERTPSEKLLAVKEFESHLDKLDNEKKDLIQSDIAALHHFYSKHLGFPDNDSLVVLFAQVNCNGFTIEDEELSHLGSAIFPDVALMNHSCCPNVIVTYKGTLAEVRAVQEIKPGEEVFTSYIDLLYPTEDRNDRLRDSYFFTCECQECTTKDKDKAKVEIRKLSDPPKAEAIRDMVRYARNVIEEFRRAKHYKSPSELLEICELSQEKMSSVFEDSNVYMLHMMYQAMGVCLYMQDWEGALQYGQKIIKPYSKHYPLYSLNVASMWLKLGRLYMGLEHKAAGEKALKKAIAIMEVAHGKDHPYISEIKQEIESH

COc1cc2c(NC3CCN(C(C)C)CC3)nc(C3CCCCC3)nc2cc1OCCCN1CCCC1
Activity [1]: 35% | Activity [2]: 22%

CN(C)c1ccc(C(=O)NCCCCCCC(=O)NO)cc1
Activity [3]: 25.2%

Cc1sc2c(c1C)C(c1ccc(Cl)cc1)=N[C@@H](CC(=O)OC(C)(C)C)c1nnc(C)n1-2
fold change (FC) [4]: 250

COc1ccccc1S(=O)(=O)Nc1ccc2c(c1)CN(C)C(=O)N2
Activity [5]: 89%

CCCc1cc(C)[nH]c(=O)c1CNC(=O)c1cc(-c2ccnc(N3CCN(C)CC3)c2)cc2c1cnn2C(C)C
Activity [1]: 35% | Activity [2]: 20%

O=C(CCCCSc1nc(-c2ccc(-c3ccccc3)cc2)cc(=O)[nH]1)NO
EC50 [6]: 350 nM | fold change (FC) [7]: 4.3

O=C(/C=C/c1ccc(NC(=O)C(Cc2ccccc2)c2ccccc2)cn1)NO (configuration not stated)
EC50 [6]: 350 nM | fold change (FC) [7]: 6.4

Nc1ccc(F)cc1NC(=O)c1ccc(CNC(=O)/C=C/c2cccnc2)cc1
Activity [8]: 80.6% | Activity [9]: 82.6%

O=C(NCCCN1CCCC1)c1cncc(-c2ccccc2N2CCN(CCc3c[nH]c4ccccc34)CC2)c1
Activity [10]: 30%

N#Cc1cc(C(=O)NCCCN2CCCC2)cc(-c2ccccc2N2CCN(CCc3c[nH]c4ccccc34)CC2)c1
Activity [10]: 30% | fold change (FC) [11]: 4 | IC50 [12]: 27 nM

CCC(=O)CCCCC[C@@H]1NC(=O)[C@H]2CCCCN2C(=O)[C@H]([C@@H](C)CC)NC(=O)[C@H](Cc2cc3ccccc3n2OC)NC1=O
fold change (FC) [13]: 3.15 | Activity [14]: 24.9% | fold change (FC) [15]: 1.34 | Activity [16]: 7.5%

CC(=O)SCCCCC[C@H](NC(=O)C1CCC(=O)N1)C(=O)Nc1ccccc1 (some centres not stated)
Activity [17]: 52%

Source: ChEMBL document CHEMBL5096158, “HIV latency reversal agents: A potential path for functional cure?” (Eur J Med Chem, 2021)
